Experimental data published in article PMC7318243, “Computationally Empowered Workflow Identifies Novel Covalent Allosteric Binders for KRAS^G12C” (Chemmedchem, 2020).

What was measured:
active RAS = assay: Cellular assay for RAS activation (G-LISA); type: cell-based; conditions: 24 h treatment; read-out: Cellular IC50 (inhibition of active RAS formation)
Protocol: SOS1CAT. All steps of the assay were performed at 20 °C. A volume of 2.5 µL of the KRASG12C working solution was added to all wells of the test plate using a Multidrop dispenser (Thermo LabSystems). After 180 min, 2.5 µL of the SOS1CAT working solution was added to all wells, except for the inhibitor control solution wells. After 30 min incubation, HTRF was measured.
In the KRASWT activation by SOS1cat assay, human SOS1CAT mediated loading of GST-KRASWT– GDP was quantified with a fluorescent GTP analogue. The assay was performed as described above for the KRASG12C activation. GST-KRASG12C was replaced by GST-KRASWT, used at a final […]
(§1) 3.4 Covalent binding assay by mass spectrometry
The percentage of covalent adduct formation at KRAS G12C was determined by intact mass determination. To this end, 25 µM recombinant KRAS mutant (G12C , C51S, C80L, C118S) was incubated with 25 µM compound (1% v/v DMSO final concentration) in 50 mM Tris, pH 8.0, 50 mM NaCl at room temperature for 2 h. Reaction mixture (20 µL) was acidified by addi tion of 4% v/v TFA (4 µL). […] Spectra were analyzed by using MassLynx v4.1 software and deconvoluted with the MaxEnt1 algorithm. Percent conversion was determined by the ratio of signal intensities of […] and KRASG12C + inhibitor. […]
Using the G-LISA Kit (Cytoskeleton BK131, RAS Activation Assay), 50000 cells are seeded in a 96 well plate for 72 h at 37 °C (10% FBS, DMEM/Ham's F-12, 2 mM L-Glutamine). […] Finally, the content of active R AS is measured by detecting the absorbance at 490 nm. […]
The percentage of covalent adduct formation at KRASG12C was determined for compounds 1, 2 and 13 by intact mass determination. […]
Liquid chromatography-mass spectrometry (LC-MS) analysis was performed using a Waters SYNAPT G2-S quadrupole time-of-flight mass spectrometer connected to a Waters nanoAcquity UPLC system. […] Spectra were analyzed by using MassLynx v4.1 software and deconvoluted with the MaxEnt1 algorithm. Percent of conversion was determined by the ratio of signal intensiti es of apo-KRAS and KRAS + inhibitor.

KRAS^G12C = biological target: T1, KRAS^G12C (Homo sapiens, UniProt P01116, C118S/C51S/C80L/G12C); assay: Determination of kinact and KI by LC-MS occupancy over time; type: binding; conditions: for k inact (maximum potential rate of KRAS^G12C inactivation) / Ki: 10 µM KRAS^G12C, 10-100 µM inhibitor, 0-180 min; for Ki: read-out: K I (binding constant of the reversible binding event)
T1 construct: made in house
Protocol: as §1
(§2) The percentage of covalent adduct formation at KRAS G12C was determined by intact mass determination. To this end, 25 µM recombinant KRAS mutant (G12C , C51S, C80L, C118S) was incubated with 25 µM compound (1% v/v DMSO final concentration) in 50 mM Tris, pH 8.0, 50 mM NaCl at room temperature for 2 h. Reaction mixture (20 µL) was acidified by addi tion of 4% v/v TFA (4 µL). LC-MS analysis was performed using a Waters SYNAPT G2 -S quadrupole time -of-flight mass spectrometer connected to a Waters nanoA CQUITY UPLC system. Samples were loaded onto a 2.1 × 5 mm MassPrep C4 guard column (Waters) and desalted with a short gradient (3 min) of increasing concentration of acetonitrile at a flow rate of 100 µL/min. Spectra were analyzed by using MassLynx v4.1 software and deconvoluted with the MaxEnt1 algorithm. Percent conversion was determined by the ratio of signal intensities of […] and KRASG12C + inhibitor. […]
3.6 Determination of k inact and KI
The percentage of covalent adduct formation at KRASG12C was determined for compounds 1, 2 and 13 by intact mass determination. To this end, 25 µM of the same recombinant KRAS mutant as for the covalent binding assay (G12C, C51S, C80L, C118S) were incubated with 25 µM of compound (1% v/v final DMSO concentration) in 50 mM Tris, pH8, 50 mM NaCl at room temperature for 2 h. The reaction was acidified by adding 4 µL of 4% v/v TFA to 20 µL reaction […]
Liquid chromatography-mass spectrometry (LC-MS) analysis was performed using a Waters SYNAPT G2-S quadrupole time-of-flight mass spectrometer connected to a Waters nanoAcquity UPLC system. Samples were loaded on a 2.1 x 5 mm mass prep C4 guard column (Waters) and desalted with a short grad ient (3 min) of increasing concentrations of acetonitrile at a flow rate of 100 µL/min. Spectra were analyzed by using MassLynx v4.1 software and deconvoluted with the MaxEnt1 algorithm. Percent of conversion was determined by the ratio of signal intensiti es of apo-KRAS and KRAS + inhibitor.
The kinact / KI ratio was determined by measuring the total occupancy (% conversion) over time at different inhibitor concentrations. In detail, 10 µM KRASG12C were incubated in the same reaction buffer as above with 10 µM, 25 µM, 50 µM or 100 µM of inhibitor at different reaction times (0, 2, 20, 60 and 180 min), the reaction was quenched by adding 2 µL of 4% v/v TFA to 10 µL reaction volume and subsequently measured by LC -MS as described above. The observed occupancy percentage over time at a given inhibitor concentration was fit to the following equation using […]
% conversion = vi [1 − exp(−k ∗ t)]
The obtained kobs values were then plotted as a function of inhibitor concentration and fit to the […]
to yield the kinact and KI.[26]

[1] = biological target: T2, KRAS^G12C (recombinant KRAS mutant G12C, C51S, C80L, C118S) (Homo sapiens, UniProt P01116, C118S/C51S/C80L/G12C); assay: Covalent binding assay by mass spectrometry (intact mass, % covalent adduct); conditions: 25 µM protein, 25 µM compound, room temperature, 2 h
T2 construct: made in house
Protocol: One of the most synthetically accessible compounds, 1,6‐naphthyridin‐5(6H)‐one (1), was prepared (Table 1; Scheme S1). Structurally close to 1, isoquinolin‐1(2H)‐one 2 derivatives were also considered for the exploration of structure‐activity relationships (SAR). To measure the proportion of inhibitor reacting with Cys12 of the KRAS^G12C mutant, the bound/unbound protein ratio was quantified by mass spectrometry (MS). Then, the inhibition potency of these compounds towards KRAS^G12C was evaluated in biochemical assays measuring the activation of GDP‐bound KRAS^G12C or KRAS^WT by SOS1.19 […]
as §1, §2

IC50 (active RAS) [µM] | k inact/K I (KRAS^G12C) [M⁻¹ s⁻¹] | k inact (maximum potential rate of KRAS^G12C inactivation) (KRAS^G12C) [s⁻¹] | Ki (KRAS^G12C) [µM] | MS assay [% binding] (KRAS^G12C bound fraction) [1] [%] | Structure (SMILES)
22 | 49.38 | 0.00159 | 32.2 | 73 | C=CC(=O)N1CCC(c2cc3cnc(-c4c(O)cccc4F)cc3c(=O)[nH]2)C1 (stereo not drawn) [Compound 13, 7-(2-Fluoro-6-hydroxyphenyl)-3-[1-(prop-2-enoyl)pyrrolidin-3-yl]-2,6-naphthyridin-1(2H)-one]
> 30 | 26.72 | 0.00105 | 39.3 | 80 | C=CC(=O)N1CCC(c2cc3ncc(-c4c(O)cccc4F)cc3c(=O)[nH]2)C1 (stereo not drawn) [Compound 1, 3-(2-Fluoro-6-hydroxyphenyl)-7-[1-(prop-2-enoyl)pyrrolidin-3-yl]-1,6-naphthyridin-5(6H)-one]
> 30 | 55.05 | 0.00024 | 4.4 | 35 | C=CC(=O)N1CCC(c2cc3ccc(-c4c(O)cccc4F)cc3c(=O)[nH]2)C1 (stereo not drawn) [Compound 2, 7-(2-Fluoro-6-hydroxyphenyl)-3-[1-(prop-2-enoyl)pyrrolidin-3-yl]isoquinolin-1(2H)-one]
